Laboratory results: paper PMC4122966, “Novel VCP modulators mitigate major pathologies of rd10, a mouse model of retinitis pigmentosa” (Scientific Reports, 2014)
Several values for one entry are separate records, joined by “and”; a condition that tells them apart may be missing. Equal entries are not always repeated.

Columns and labels:
[1] = tested on: whole cell soluble lysate of neuronally differentiated PC12 cells; test: total ATPase activity in clarified whole cell lysates; format: biochemical
Method: Figure 3 Effects of KUSs on ATPase activities, ATP levels, and acetyl-CoA levels. (a) Inhibition of ATPase activity in clarified whole cell lysates by KUS121, KUS187, and KUS94, but not KUS11. Total ATPase activities in clarified whole cell lysates from differentiated PC12 cells were measured in the absence and presence of KUSs. Relative ATPase activities are shown with values in the absence of KUS (D: DMSO) set at 100%. (b) HeLa cells were cultured in medium with low glucose (0.25 g/l) for 20 hours, with or without KUSs, and ATP levels were measured with luciferase assays. (c) HeLa cells were cultured in medium with low glucose (0.25 g/l) for 20 hours, with or without KUSs, and acetyl-CoA levels were measured. * P < 0.05, ** P < 0.01, *** P < 0.001 vs. DMSO control (Dunnett's test, n = 3).
(§1) We measured ATPase activities by modifying the molybdate assay, which was as described previously. In the assay, 1 μg of whole cell soluble lysate of neuronally differentiated PC12 cells, or 500 ng recombinant VCP protein, was incubated in 20 μl of the ATPase assay buffer (20 mM HEPES (pH 7.4), 50 mM KCl, 5 mM MgCl2) with 100 μM [γ-^32P]ATP (18.5 GBq/mmol) (PerkinElmer) at 37°C for 20 min. After incubation, the reaction was quenched by addition of 200 μl of 8% ice-cold trichloroacetic acid solution with 1 mM K2HPO4, and then 50 μl of solution A (3.75% ammonium molybdate, 0.02 M silicotungstic acid in 3 N H2SO4) and 300 μl of n-butyl acetate were added to the reaction. The samples were mixed well and centrifuged at 12,000 × g for 1 min. Then, 200 μl aliquots from the upper organic phases were taken and their radioactivity was determined with a liquid scintillation counter for β-radiation, which determined the amounts of ^32P released.

recombinant VCP = recombinant VCP (Homo sapiens, UniProt P55072); test: ATPase activity of recombinant VCP in vitro (modified molybdate assay, [γ-32P]ATP); format: biochemical
Chain of recombinant VCP (P55072 whole entry, species assumed): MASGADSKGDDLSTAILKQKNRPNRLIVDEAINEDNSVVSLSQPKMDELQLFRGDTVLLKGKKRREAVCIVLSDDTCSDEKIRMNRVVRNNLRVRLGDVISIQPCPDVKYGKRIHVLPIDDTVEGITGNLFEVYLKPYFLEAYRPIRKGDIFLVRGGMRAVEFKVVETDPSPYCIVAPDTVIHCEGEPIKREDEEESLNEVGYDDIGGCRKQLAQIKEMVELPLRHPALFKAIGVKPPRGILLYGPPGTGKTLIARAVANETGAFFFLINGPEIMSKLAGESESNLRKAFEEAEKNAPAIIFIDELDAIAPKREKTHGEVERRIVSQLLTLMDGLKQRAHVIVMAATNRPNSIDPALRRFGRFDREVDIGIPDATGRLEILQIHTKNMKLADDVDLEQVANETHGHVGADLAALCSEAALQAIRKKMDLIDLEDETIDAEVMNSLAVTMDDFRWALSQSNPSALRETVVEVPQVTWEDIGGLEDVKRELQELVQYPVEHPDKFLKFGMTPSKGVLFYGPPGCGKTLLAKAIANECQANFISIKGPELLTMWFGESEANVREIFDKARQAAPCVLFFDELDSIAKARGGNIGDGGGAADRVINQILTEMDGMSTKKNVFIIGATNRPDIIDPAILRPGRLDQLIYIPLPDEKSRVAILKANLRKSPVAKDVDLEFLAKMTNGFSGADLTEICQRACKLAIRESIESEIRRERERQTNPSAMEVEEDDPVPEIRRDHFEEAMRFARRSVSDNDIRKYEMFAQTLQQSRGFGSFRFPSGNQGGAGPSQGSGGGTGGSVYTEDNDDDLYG
Method: as §1

retinal neuronal cells = test: retinal organ culture with NMDA insult; format: cell-based, mouse; settings: 200 µM NMDA, 50 µM KUS121, 4 days
Method: Supplementary Figure Legends
Supplementary Figure 1 Inhibitory effects of KUS121, KUS187, and DBeQ on the ATPase activity of recombinant VCP purified from E. coli.
Supplementary Figure 2 (a) HeLa cells were cultured in medium with low glucose (0.25 g/l) for 20 hours, with or without KUSs, and ATP levels were measured with luciferase assays. *** P < 0.005 vs. DMSO control (Dunnett’s test, n=3). HG: medium with 4.5 g/l glucose. Error bars indicate SD. (b) HeLa cells were cultured in medium with low glucose (0.2 g/l) for 20 hours, with DMSO or KUSs, and ATP and ADP levels were measured by HPLC. The respective ratios of ATP/ADP are shown. * P < 0.05, ** P < 0.01 vs. DMSO control (Dunnett’s test, n=3). Error bars indicate SD. (c) HeLa cells were cultured in medium without glucose for 6 hours, with (50 µM each KUS, as indicated) or without KUSs, and acetyl-CoA levels were measured by HPLC.
Supplementary Figure 3 Immunohistochemical analyses of retinal neuronal cells.
Retinal sections of 5-month-old C57BL/6 mice were stained with (b) or without (a) an anti-VCP antibody12, developed with diaminobenzidine and counter-stained with hematoxylin (a, b). Note that all retinal neuronal cells highly expressed VCP. GCL: ganglion cell layer, IPL: inner plexiform layer, INL: inner nuclear layer, OPL: outer plexiform layer, ONL: outer nuclear layer, IS: inner segment, OS: outer segment.
Retinas from adult C57BL/6 mice were cultured on porous membrane with 200 µM of NMDA with or without KUS121 (50 µM) for 4 days. (a) HE-stained retinal sections.
In the retina cultured with KUS121, the inner nuclear layer (INL), inner plexiform layer (IPL), ganglion cell layer (GCL), and retinal nerve fiber layer (RNFL) were thicker than that of the retina without KUS121. (b) TUNEL staining of the retinal […]
Supplementary Figure 5 (a) Cross sectional (vertical) images obtained by spectral-domain optical coherence tomography (SD-OCT) in 21-day-old C57BL/6 wild-type (WT) and rd10 mice with or without KUSs. […] (c) The mean amplitude of the a-wave (measured at 25 msec), which is derived from photoreceptors, in KUS-treated […]

HeLa cells = test: cell death-inducing activity; format: cell-based; settings: 50 μM, 24 hours
Source text: Figure 1 Structures and characterization of KUSs, novel VCP modulators. (a) Structures and IC50 values of KUS11, KUS31, KUS69, KUS94, KUS121, and KUS187. […] (b) ATPase activity assays of recombinant human […], comparing KUSs and DBeQ. (c) Immunoblot analysis of ubiquitinated proteins, an ER stress marker (CHOP), and an autophagy indicator (LC3), comparing KUSs and DBeQ. As a control, MG132, a proteasome inhibitor, was used for the analysis. Actin served as a loading control. Complete scans of the different blots are presented in Supplementary Fig. 7. (d) Comparison of KUSs and DBeQ for cell death-inducing activities. HeLa cells were treated with 50 μM DBeQ or KUSs for 24 hours. […]

Cc1cc(F)ccc1-c1ccc(/N=N/c2cc(S(=O)(=O)O)c3ccccc3c2N)cn1 [KUS121]
lowering of total ATPase activity ([1]; 100 nM compound): approximately 20%
lowering of total ATPase activity ([1]; 1 μM compound): ~40%
IC50 (recombinant VCP): 200 to 300 nM and 330 nM
TUNEL-positive apoptotic cells (retinal neuronal cells): More TUNEL-positive apoptotic cells (green) were observed in the retina
thickness of INL, IPL, GCL and RNFL (HE-stained sections) (retinal neuronal cells; vs retina without KUS121): thicker
protection of retinal neuronal cells from NMDA insult (retinal neuronal cells; retinas from adult C57BL/6 mice): protects retinal neuronal cells from NMDA insult
induction of cell death (HeLa cells): did not induce any of these phenotypes
